Data on four molecules can be found in ChEMBL document CHEMBL1201862, “PubChem BioAssay data set” (2004).

Each structure is given as a SMILES string. Values joined by “and” are separate entries in the source; they are usually repeats but may differ in a detail not shown here. Equal entries are not always repeated. Structures can show the parent of a compound that is named as a salt. Active and inactive are the calls of the source.

For orientation: Ki means a measure of affinity in units of concentration, obtained from inhibition or displacement. The term EC50 denotes the concentration giving half of the maximal effect. Lower therefore signals higher potency in that assay. By AC50 is commonly meant the midpoint of the concentration-response curve, whichever way the signal moves. Usually IC50 stands for the concentration that inhibits the measured activity by half.

Assay [1] addresses Protein kinase C theta type (Homo sapiens, UniProt Q04759). The assay can be described thus: Navigating the Kinome. Panel member name: PRKCQ. Format: functional.
Assay [2] has as its target Serine/threonine-protein kinase PLK4 (Homo sapiens, UniProt O00444). It counts as functional.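 Further: PLK4 measured as one member of a kinome-wide kinase profiling panel.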
In assay [3] the target is Proto-oncogene tyrosine-protein kinase receptor Ret (Homo sapiens, UniProt P07949). It counts as functional.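 Further: measured within a kinome-wide profiling panel, RET as the panel member.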
Assay [4] has as its target Serine/threonine-protein kinase PAK 1 (Homo sapiens, UniProt Q13153). It counts as functional.
The target of assay [5] is Tyrosine-protein kinase JAK3 (Homo sapiens, UniProt P52333). It counts as functional.
In assay [6] the target is Testis-specific serine/threonine-protein kinase 1 (Homo sapiens, UniProt Q9BXA7). It counts as functional.
Assay [7] has as its target High affinity nerve growth factor receptor (Homo sapiens, UniProt P04629). It counts as functional.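 Further: NTRK1 tested as one member of a kinome-wide profiling panel.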
In assay [8] the target is Tyrosine-protein kinase Srms (Homo sapiens, UniProt Q9H3Y6). Format: functional.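 Further: SRMS measured as one member of a kinome-wide kinase profiling panel.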
Assay [9] has as its target Glycogen synthase kinase-3 alpha (Homo sapiens, UniProt P49840). It counts as functional.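 Further: GSK3A result taken from a broad kinome-wide kinase panel.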
The target of assay [10] is Dual specificity tyrosine-phosphorylation-regulated kinase 3 (Homo sapiens, UniProt O43781). It counts as functional.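 Further: measured as one member of a broad kinase panel.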
The target in assay [11] is Hepatocyte growth factor receptor (Homo sapiens, UniProt P08581). Format: functional.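 Further: kinase panel profiling across the kinome, with MET as the panel member.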
Assay [12] has as its target Casein kinase I isoform delta (Homo sapiens, UniProt P48730). Format: functional.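 Further: measured as one member (CSNK1D) of a kinome panel.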
The target in assay [13] is Tyrosine-protein kinase ABL1 (Homo sapiens, UniProt P00519). It counts as functional.
In a further assay the target is Ephrin type-A receptor 2 (Homo sapiens, UniProt P29317). It counts as functional.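 Further: EPHA2 tested as one member of a kinome-wide kinase panel.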
Chain of Ephrin type-A receptor 2 (P29317 whole entry): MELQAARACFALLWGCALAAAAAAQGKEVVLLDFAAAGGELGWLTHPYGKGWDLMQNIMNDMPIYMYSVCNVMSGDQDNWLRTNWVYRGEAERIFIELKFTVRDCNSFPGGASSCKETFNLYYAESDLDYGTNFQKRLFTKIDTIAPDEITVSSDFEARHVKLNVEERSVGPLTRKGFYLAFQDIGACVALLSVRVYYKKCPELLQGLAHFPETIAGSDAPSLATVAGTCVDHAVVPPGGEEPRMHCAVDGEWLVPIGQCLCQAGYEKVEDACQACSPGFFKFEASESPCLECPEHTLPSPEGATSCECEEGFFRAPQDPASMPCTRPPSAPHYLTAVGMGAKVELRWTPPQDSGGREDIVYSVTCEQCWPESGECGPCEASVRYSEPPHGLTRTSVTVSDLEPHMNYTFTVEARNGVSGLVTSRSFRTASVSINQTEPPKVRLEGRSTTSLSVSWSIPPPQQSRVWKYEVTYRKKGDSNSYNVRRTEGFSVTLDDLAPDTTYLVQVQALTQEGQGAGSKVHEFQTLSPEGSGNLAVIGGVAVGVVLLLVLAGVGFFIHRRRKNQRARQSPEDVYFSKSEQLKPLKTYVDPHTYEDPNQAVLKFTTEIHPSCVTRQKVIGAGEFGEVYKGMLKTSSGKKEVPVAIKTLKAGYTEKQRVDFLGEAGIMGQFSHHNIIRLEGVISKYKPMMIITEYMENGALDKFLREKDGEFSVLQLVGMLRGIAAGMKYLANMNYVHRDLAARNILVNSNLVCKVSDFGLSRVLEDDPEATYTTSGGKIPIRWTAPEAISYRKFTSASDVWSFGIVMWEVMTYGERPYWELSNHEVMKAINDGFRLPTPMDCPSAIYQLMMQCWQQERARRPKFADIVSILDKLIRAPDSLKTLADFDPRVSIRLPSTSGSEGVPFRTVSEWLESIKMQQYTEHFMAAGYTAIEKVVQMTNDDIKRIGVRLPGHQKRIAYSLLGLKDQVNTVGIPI
In assay [14] the target is Maternal embryonic leucine zipper kinase (Homo sapiens, UniProt Q14680). Format: functional.
Chain of Maternal embryonic leucine zipper kinase (Q14680 whole entry): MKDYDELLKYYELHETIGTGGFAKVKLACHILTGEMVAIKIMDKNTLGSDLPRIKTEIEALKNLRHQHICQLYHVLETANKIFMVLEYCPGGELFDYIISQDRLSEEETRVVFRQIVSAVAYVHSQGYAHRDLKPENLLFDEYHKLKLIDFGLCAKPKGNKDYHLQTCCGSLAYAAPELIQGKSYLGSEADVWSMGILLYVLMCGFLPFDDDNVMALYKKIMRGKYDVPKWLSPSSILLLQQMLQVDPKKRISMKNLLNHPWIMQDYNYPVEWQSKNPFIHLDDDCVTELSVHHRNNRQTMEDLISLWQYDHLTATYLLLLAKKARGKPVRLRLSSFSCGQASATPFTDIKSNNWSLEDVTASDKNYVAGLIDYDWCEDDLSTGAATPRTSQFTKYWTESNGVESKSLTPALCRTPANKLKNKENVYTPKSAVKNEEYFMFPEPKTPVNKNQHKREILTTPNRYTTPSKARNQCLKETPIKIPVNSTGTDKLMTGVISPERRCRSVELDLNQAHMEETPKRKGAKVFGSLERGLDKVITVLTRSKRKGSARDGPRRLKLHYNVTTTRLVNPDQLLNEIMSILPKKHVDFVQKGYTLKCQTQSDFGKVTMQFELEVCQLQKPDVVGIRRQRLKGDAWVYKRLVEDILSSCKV
Assay [15] deals with Platelet-derived growth factor receptor alpha (Homo sapiens, UniProt P16234). Briefly: Navigating the Kinome. Panel member name: PDGFRA. Format: functional.
In assay [16] the target is Serine/threonine-protein kinase DCLK1 (Homo sapiens, UniProt O15075). It counts as functional.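 Further: affinity for DCLK1 (listed as DCAMKL1) measured as one member of a kinome-wide kinase profiling panel.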
Chain of Serine/threonine-protein kinase DCLK1 (O15075 whole entry): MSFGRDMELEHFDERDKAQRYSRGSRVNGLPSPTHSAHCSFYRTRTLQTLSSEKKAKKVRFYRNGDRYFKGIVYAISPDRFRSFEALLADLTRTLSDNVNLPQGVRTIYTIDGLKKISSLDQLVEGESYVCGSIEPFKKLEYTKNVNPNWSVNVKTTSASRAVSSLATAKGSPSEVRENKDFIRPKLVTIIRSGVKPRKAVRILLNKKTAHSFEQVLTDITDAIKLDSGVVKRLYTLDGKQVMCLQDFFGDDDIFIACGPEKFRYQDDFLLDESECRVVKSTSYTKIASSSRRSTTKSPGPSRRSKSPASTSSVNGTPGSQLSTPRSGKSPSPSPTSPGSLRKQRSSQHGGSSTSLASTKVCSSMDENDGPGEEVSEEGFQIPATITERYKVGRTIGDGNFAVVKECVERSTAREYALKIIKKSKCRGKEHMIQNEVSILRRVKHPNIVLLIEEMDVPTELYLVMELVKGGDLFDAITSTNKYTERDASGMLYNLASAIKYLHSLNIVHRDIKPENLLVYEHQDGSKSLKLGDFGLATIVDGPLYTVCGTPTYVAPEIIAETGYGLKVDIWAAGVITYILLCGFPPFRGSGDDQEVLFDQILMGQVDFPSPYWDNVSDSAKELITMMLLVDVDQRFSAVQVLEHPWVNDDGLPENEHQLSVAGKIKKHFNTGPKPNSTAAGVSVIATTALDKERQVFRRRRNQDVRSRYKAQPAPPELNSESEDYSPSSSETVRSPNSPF
Assay [17] addresses Cyclin-dependent kinase 8 (Homo sapiens, UniProt P49336). Briefly: Navigating the Kinome. Panel member name: CDK8. It counts as functional.
The target in assay [18] is BDNF/NT-3 growth factors receptor (Homo sapiens, UniProt Q16620). Format: functional.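 Further: NTRK2 measured as one member of a broad kinome-wide kinase profiling panel.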
Assay [19] concerns the target Leukocyte tyrosine kinase receptor (Homo sapiens, UniProt P29376). Briefly: Navigating the Kinome. Panel member name: LTK. Format: functional.
Assay [20] deals with T1, Zinc finger protein mex-5 (Caenorhabditis elegans, UniProt Q9XUB2).
T1 sequence (Q9XUB2 whole entry): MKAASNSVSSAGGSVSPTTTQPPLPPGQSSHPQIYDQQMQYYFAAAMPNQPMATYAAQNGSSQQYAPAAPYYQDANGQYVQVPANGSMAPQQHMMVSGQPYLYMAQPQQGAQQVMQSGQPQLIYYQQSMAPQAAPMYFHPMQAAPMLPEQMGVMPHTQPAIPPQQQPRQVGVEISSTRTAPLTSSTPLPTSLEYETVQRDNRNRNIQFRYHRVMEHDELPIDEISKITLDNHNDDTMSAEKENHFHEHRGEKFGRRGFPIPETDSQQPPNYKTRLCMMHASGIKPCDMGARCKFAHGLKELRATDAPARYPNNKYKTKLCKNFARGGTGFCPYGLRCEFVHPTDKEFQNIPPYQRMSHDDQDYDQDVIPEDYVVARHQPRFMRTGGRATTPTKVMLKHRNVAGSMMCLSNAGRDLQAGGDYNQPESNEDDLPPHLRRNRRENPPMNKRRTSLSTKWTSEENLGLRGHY
The assay can be described thus: MEX-5/TCR-2 RNA interaction inhibitors, dose response, biochemical, C. elegans, fluorescence polarization (AID 1960).

The target in a further assay is T2, Caspase-6 (Homo sapiens, UniProt P55212).
T2 sequence (P55212 whole entry): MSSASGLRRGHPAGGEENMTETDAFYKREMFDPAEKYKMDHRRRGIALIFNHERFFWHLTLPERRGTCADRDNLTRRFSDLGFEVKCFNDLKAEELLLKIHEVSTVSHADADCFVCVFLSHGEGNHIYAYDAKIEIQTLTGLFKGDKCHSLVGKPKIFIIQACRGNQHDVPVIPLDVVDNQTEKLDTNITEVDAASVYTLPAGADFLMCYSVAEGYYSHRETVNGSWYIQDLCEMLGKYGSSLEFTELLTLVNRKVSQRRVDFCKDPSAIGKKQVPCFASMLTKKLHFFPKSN
Briefly: human caspase-6 inhibitors, dose response, biochemical, VEID-R110 fluorescence, cherry-pick (AID 720632).

Another assay addresses CAAX prenyl protease 1 (Saccharomyces cerevisiae S288c, UniProt P47154). The assay can be described thus: Ste24 protease inhibitors, dose response, biochemical, S. cerevisiae, plate reader, cherry-pick (AID 488815).
A further assay concerns Jurkat. Briefly: antigen receptor-induced NF-kB inhibitors, dose response, Jurkat, luciferase reporter, luminescence, B- and T-cell (AID 489004).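 Further: NF-kB luciferase reporter Jurkat cells stimulated with PMA plus ionomycin.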 Format: functional, cell-based. The conditions noted are these: Homo sapiens. A general note: In a reporter assay the amount or activity of a reporter protein is the signal.
The target of assay [21] is T3, Rac GTPase-activating protein 1 (Homo sapiens, UniProt Q9H0H5).
T3 sequence (Q9H0H5 whole entry): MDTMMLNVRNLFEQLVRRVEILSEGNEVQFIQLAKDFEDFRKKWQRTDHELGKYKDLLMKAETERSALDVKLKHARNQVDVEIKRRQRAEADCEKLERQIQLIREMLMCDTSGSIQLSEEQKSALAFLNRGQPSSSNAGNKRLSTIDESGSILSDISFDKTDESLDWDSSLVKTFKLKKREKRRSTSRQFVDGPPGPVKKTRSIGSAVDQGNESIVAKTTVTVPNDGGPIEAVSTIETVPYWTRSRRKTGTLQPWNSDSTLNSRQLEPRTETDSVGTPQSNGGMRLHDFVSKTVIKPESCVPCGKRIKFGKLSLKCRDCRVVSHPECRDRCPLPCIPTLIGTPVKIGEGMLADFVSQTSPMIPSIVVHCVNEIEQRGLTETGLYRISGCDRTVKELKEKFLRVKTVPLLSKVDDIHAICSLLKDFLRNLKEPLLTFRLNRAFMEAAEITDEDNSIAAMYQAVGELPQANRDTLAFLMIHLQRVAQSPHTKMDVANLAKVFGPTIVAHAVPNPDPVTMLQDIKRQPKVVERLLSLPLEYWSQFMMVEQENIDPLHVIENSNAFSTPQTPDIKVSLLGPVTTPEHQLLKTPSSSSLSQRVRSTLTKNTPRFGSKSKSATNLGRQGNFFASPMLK
The assay can be described thus: MgcRacGAP GTPase-activating activity inhibitors, confirmation, biochemical, ADP Hunter fluorescence, primary and confirmatory (AID 624330). Format: functional.

Chain of Protein kinase C theta type (Q04759 whole entry): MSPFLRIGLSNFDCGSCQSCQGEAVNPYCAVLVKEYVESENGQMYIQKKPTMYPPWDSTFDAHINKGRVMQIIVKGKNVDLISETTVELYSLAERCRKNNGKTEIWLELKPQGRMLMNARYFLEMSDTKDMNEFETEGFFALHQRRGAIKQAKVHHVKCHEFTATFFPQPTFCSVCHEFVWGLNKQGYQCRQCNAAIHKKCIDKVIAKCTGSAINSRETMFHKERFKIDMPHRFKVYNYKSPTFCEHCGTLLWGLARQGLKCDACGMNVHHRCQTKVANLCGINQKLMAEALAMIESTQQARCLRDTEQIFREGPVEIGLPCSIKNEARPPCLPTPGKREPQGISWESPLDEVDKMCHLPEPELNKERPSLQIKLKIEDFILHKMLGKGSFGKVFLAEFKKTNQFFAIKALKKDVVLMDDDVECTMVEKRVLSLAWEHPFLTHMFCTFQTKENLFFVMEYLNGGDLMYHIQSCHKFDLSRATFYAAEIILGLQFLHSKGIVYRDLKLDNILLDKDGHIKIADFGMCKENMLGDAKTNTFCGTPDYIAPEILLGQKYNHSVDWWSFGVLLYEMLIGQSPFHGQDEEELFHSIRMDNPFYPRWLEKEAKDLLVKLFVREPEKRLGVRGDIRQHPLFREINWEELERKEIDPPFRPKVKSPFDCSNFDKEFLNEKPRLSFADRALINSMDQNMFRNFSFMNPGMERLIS
Chain of Glycogen synthase kinase-3 alpha (P49840 whole entry): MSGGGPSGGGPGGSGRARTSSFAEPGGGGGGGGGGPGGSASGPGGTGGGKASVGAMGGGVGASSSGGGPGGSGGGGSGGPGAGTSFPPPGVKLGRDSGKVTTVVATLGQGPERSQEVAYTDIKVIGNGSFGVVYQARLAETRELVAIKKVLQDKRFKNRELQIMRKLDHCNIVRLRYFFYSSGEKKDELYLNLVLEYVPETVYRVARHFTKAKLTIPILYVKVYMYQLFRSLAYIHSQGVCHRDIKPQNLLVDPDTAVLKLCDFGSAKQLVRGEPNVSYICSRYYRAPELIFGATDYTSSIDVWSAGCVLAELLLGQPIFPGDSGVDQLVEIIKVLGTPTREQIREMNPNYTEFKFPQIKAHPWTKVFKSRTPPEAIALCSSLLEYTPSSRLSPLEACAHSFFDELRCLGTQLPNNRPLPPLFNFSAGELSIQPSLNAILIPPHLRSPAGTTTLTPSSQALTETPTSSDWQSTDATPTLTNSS
Chain of Serine/threonine-protein kinase PAK 1 (Q13153 whole entry): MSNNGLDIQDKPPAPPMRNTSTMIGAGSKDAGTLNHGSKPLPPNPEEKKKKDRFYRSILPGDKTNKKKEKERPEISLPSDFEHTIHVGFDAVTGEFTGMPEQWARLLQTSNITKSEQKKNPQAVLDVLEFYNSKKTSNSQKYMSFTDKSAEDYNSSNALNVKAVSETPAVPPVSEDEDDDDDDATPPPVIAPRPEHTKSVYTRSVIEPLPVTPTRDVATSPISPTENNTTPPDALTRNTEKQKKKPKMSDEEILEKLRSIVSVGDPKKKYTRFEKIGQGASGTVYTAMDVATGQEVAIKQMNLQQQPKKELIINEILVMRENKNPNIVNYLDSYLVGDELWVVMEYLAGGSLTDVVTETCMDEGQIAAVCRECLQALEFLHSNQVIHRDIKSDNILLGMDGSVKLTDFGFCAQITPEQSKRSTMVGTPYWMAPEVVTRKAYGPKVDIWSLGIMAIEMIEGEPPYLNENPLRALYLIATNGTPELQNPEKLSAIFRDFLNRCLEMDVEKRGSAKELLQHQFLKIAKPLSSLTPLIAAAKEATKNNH
Chain of Leukocyte tyrosine kinase receptor (P29376 whole entry): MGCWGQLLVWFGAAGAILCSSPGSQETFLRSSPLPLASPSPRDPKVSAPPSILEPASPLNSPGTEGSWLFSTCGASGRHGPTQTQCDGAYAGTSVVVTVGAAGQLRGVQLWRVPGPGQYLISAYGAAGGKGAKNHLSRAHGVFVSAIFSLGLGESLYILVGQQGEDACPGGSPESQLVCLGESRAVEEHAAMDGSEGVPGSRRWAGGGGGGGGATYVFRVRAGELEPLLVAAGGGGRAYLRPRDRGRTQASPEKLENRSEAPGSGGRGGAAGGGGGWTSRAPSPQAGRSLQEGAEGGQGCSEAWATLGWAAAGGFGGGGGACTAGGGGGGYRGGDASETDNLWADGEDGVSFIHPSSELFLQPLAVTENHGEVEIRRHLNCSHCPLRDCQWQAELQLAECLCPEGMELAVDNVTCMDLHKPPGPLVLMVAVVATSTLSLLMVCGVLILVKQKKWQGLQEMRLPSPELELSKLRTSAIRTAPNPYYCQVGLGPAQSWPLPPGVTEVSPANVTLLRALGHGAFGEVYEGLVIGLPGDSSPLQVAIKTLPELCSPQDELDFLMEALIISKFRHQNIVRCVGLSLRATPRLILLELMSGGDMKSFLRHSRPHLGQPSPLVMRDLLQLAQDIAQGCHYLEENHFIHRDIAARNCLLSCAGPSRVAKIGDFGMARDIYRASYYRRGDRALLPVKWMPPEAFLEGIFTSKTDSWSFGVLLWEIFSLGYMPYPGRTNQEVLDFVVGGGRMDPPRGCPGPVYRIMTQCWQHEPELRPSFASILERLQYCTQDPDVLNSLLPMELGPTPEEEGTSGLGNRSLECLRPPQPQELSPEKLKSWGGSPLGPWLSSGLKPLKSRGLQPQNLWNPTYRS

As to `CN1CCN(c2nc(C3=C(c4c[nH]c5ccccc45)C(=O)NC3=O)c3ccccc3n2)CC1` [SOTRASTAURIN], the Ki in assay [1] is 0.631 nM (active); in assay [2], > 3980 nM (inactive); in assay [3], > 2000 nM (inactive); in assay [4], > 10000 nM (inactive); in assay [5], 631 nM (active); in assay [6], > 1580 nM (inactive). For the same molecule, the Ki in assay [7] is > 2510 nM (inactive); in [8], > 1580 nM (inactive); in assay [9] it was 158 nM (active); in assay [10], 6310 nM (active); in assay [11] it was > 2510 nM (inactive); in [12] it was > 7940 nM (inactive). For the same molecule, the Ki in assay [13] is > 1580 nM (inactive); at Ephrin type-A receptor 2, > 3160 nM (inactive); in assay [14] it was > 1580 nM (inactive); in assay [15], > 2510 nM (inactive); in assay [16], > 10000 nM (inactive); in assay [17], > 3980 nM (inactive). The Ki in assay [18] was > 3980 nM (inactive); in [19], 2510 nM (active).

For the molecule `CC[C@@H](CO)NC(=O)[C@@H]1C=C2c3cccc4c3c(cn4C)C[C@H]2N(C)C1` [METHYSERGIDE MALEATE], the 50% effective concentration (EC50) in assay [20] was 12.3 µM (active) and 20 µM (inconclusive). The AC50 on Caspase-6 is 11.5 µM (active) and 11.7 µM (active).

Turning to `CCCCCCCCCCOC(=O)C[n+]1c(COc2ccc(C)cc2)n(C)c2ccccc21`, the concentration at half-maximal activity (AC50) at CAAX prenyl protease 1 was 7210 nM (active).

Turning to `CCN1/C(=C\c2ccc3ccccc3[n+]2CC)Sc2cc(C)ccc21`, the IC50 in the assay with Jurkat was 15500 nM (active); in assay [21], 81300 nM (active).
